Source: US20250127784A1, “Treatment of Telangiectasia” (IMPERIAL COLLEGE INNOVATIONS LIMITED, priority 2022, published 2025)
Entries after “also recorded” stand apart in the source; their conditions may differ.

Legend:
[1] = tested on: HHT-associated haemorrhage (nosebleeds) and anaemia in ENG+/− HHT patient; test: Clinical case: HHT patient treated with trametinib, nosebleeds and transfusion-dependent anaemia; settings: for nosebleed frequency grade/category for HHT patients (Shovlin 2010, N=202): pre: highest category
[2] = dose of 2 mg/day; cited from earlier work
[3] = tested on: pulmonary arteriovenous malformations (PAVMs) of the HHT patient; test: Blinded thoracic CT scan comparison of pulmonary AVMs before and after trametinib; assay type: in vivo, human; settings: for effect on pulmonary AVMs (CT scans): 1 month before versus after 10 months of trametinib treatment; for size of venous sac #7: 13 mm at T−2 ys, 15 mm at T−1M
Method: Thoracic CT scan images taken for clinical purposes were compared before Trametinib (−10 years (T−10 yrs), −2 years (T−2ys), −1 month (T−1M)), and after Trametinib for 4 months (T+4M), 10 months (T+10M) and 18 months (T+18M, data not shown).
Blinded analysis of the CT scans was conducted by an expert Imperial Thoracic Radiologist to address the question of “whether the PAVMs have stayed the same, got better, or got worse?”

[4] = tested on: MEK1/2 transcript levels in control and ENG+/− BOECs; test: RNASeq of blood outgrowth endothelial cells (BOECs) treated by BMP9: MEK1/2; assay type: cell-based, human; settings: treated by BMP9 for 1 hour versus untreated, RBM45-normalised
Method: (§1) FIG. 9: RNASeq data in HHT and control endothelial cells for MAP2K1 encoding MEK1 from 16 cultures of blood outgrowth endothelial cells (BOECs: 4 controls, and 12 from the HHT genotypes ACVRL1^+/−, ENG^+/− and SMAD4^+/−). Data were RBM45-normalised which normalises for PTC-induced stress. A All BOECs, B Control and ENG BOECs; C Control and ENG BOECs untreated (unRx) and treated (Rx) by BMP9 for 1 hour. Bars: mean and standard deviation; circles: individual cultures.
as §1, with “10:” for “9:”, “MAP2K2” for “MAP2K1”, “MEK2” for “MEK1”
RNAseq was carried out on BOECs from HHT patients and healthy controls to investigate MEK1/MEK2 transcription levels, using RBM45 normalisation to normalise for PTC-related stress.

[5] = tested on: MAP3K1 transcripts in BOECs; test: RNASeq of blood outgrowth endothelial cells (BOECs) treated by BMP9: MAP3K1; assay type: cell-based, human; settings: all BOECs (N=16), treated by BMP9 for 1 hour versus untreated
Method: FIG. 8: MAP3K1 RNASeq data in HHT and control endothelial cells from 16 cultures of blood outgrowth endothelial cells (BOECs: 4 controls, and 12 from the HHT genotypes ACVRL1^+/−, ENG^+/− and SMAD4^+/−). Data were RBM45-normalised. A Untreated BOECs (N=8). B All BOECs (N=16), untreated (unRx), and treated (Rx) by BMP9 for 1 hour. Bars: mean and standard deviation; circles: individual cultures.
To test this hypothesis, further RNASeq analysis of blood outgrowth endothelial cells (BOECs) from HHT patients was carried out. It has previously been shown that the Shovlin group established BOECs from controls and patients of all 3 HHT genotypes (ENG^+/−, ACVRL1^+/− and SMAD4^+/−); extracted RNA from replicate cultures; and developed novel methodologies to interpret primary alignment data generated by sequencing alignments to Homo sapiens human genome build 38 (GRCh38). […]
To test this hypothesis, further RNAseq analysis of blood outgrowth endothelial cells (BOECs) from HHT patients was carried out, and the relative expression levels of TGFβ/BMP9 signalling inhibitors was investigated. […] RNA had been extracted from replicate cultures; sequenced and aligned to Homo sapiens human genome build 38 (GRCh38), and unique gene reads normalised to total alignment counts per library initially further normalised using the Shovlin-group validated, lowest Gini Coefficient (GC) housekeeper gene RBM45 […]

## CC(=O)Nc1cccc(-n2c(=O)n(C3CC3)c(=O)c3c(Nc4ccc(I)cc4F)n(C)c(=O)c(C)c32)c1 [trametinib, N-(3-{3-Cyclopropyl-5-[(2-fluoro-4-iodophenyl)amino]-6,8-dimethyl-2,4,7-trioxo-3,4,6,7-tetrahydropyrido[4,3-d]pyrimidin-1(2H)-yl}phenyl)acetamide]
[1]; ENG+/− HHT patient, trametinib treatment
  overall effect on HHT telangiectasia, nosebleeds (haemorrhage) and anaemia: treats telangiectasia, and particularly anaemia and haemorrhage associated with telangiectasia in HHT; also recorded: clinically important improvement in nosebleeds and anaemia; also recorded: elicited an improvement in HHT-associated haemorrhage (nosebleeds) and anaemia
[1]; after 10 months of trametinib treatment
  maximum nose bleed frequency, two most severe categories (daily or weekly): no longer fitted into either of these categories
[1]; after 10 months of trametinib, pre: 4th highest grouping
  haemorrhage adjusted iron requirement (HAIR) grouping (Finnamore 2013, N=50): lowest grouping
[1]; after 10 months of trametinib
  nosebleed frequency grade/category for HHT patients (Shovlin 2010, N=202): 3rd lowest frequency grade
[1]; after 10 months of trametinib, listed as Trametinib
  nosebleed frequency grade/category for HHT patients (Shovlin 2010, N=202): third lowest category
[1]; after 10 months of trametinib, pre: highest quintile
  haemorrhage adjusted iron requirement (HAIR) quintile (Finnamore 2013, N=50): lowest quintile
[1]; after 10 months trametinib treatment
  intensity of nosebleeds: brief trickles
[1]; after 10 months trametinib treatment, before: several times per week to multiple times per day
  nosebleed frequency: no more than once per month
[1]; after 10 months trametinib treatment, previously every 3 weeks
  blood (red cell) transfusion requirement for anaemia: transfusions were not required even at extended assessment times
[1]; after 10 months trametinib treatment, previously transfusions every 3 weeks
  transfusion assessment interval: 8 weekly
[1]; at 18 and 24 months of trametinib treatment
  nosebleeds (frequency and intensity), maintained frequency: approximately one a year
[1]; at 18 and 24 months of trametinib treatment (not shown)
  haemorrhage adjusted iron requirement (HAIR): reduced
[1]; standard chemotherapeutic regimen, HHT patient with cancer
  side effects, adverse event grade (CTCAE version 5.0): Grade 1
[2]
  elimination half-life: 93.6 to 115 h
[3]
  effect on pulmonary AVMs (CT scans): has no effect on the patient's AVMs; also recorded: pulmonary AVMs did not improve
[3]; listed as Trametinib
  effect on pulmonary AVMs (CT scans): No pulmonary AVMs improved; also recorded: had no effect on the PAVMs; also recorded: within the error of CT, but with a probable slight increase in size
[3]; T+4M (trametinib for 4 months)
  size of venous sac #7: 16 mm
[3]; T+10M (trametinib for 10 months)
  size of venous sac #7: 16.6 mm
[3]; scans 1 month before trametinib and 11 months later, after 10 months of treatment
  number of the 11 main pulmonary AVMs possibly slightly larger: 4

B1: BMP9: bone morphogenetic protein 9 (aka growth and differentiation factor 2, GDF2); causal ligand for HHT, used to treat BOECs for 1 hour (protein, UniProt Q9UK05 320-429, looked up)
Growth/differentiation factor …: SAGAGSHCQKTSLRVNFEDIGWDSWIIAPKEYEAYECKGGCFFPLADDVTPTKHAIVQTLVHLKFPTKVGKACCVPTKLSPISVLYKDDMGVPTLKYHYEGMSVAECGCR
[4]
  MEK1/2 transcript levels (RNASeq): no effect
[5]
  MAP3K1 transcripts (RNASeq): significantly increased
